How the values were obtained:
Assay in all cases: MIC, broth microdilution (CLSI), substance alone or ATB combined with compound at 4 or 8 μg/mL
SPN 49619 = assay type: cell-based, S. pneumoniae; conditions: SPN 49619; for MIC ATB combined with Example: Example @4 μg/ml; for MIC ATB combined with Example compound: compound @4 μg/ml
Method in brief: (§1)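 Broth microdilution; ca-MHB; 5·10^5 CFU/mL; 35° C, 16-20 h; compound alone or fixed 4/8 μg/mL with antibiotic series; endpoint = no visible growth.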

ECO 190317 = assay type: cell-based, E. coli; conditions: ECO 190317; for MIC ATB combined with Example: Example @4 μg/ml
Method in brief: as §1

ECO UFR39 = assay type: cell-based, E. coli; conditions: ECO UFR39; for MIC ATB combined with Example: Example @4 μg/ml; for MIC ATB combined with Example compound: compound @4 μg/ml
Method in brief: as §1

ECL P99 = assay type: cell-based, E. cloacae; conditions: ECL P99; for MIC ATB combined with Example: Example @4 μg/ml
Method in brief: as §1

KPN UFR42 = assay type: cell-based, K. pneumoniae; conditions: KPN UFR42; for MIC ATB combined with Example: Example @4 μg/ml; for MIC ATB combined with Example compound: compound @4 μg/ml
Method in brief: as §1

KPN BAA-1898 = assay type: cell-based, K. pneumoniae; conditions: KPN BAA-1898; for MIC ATB combined with Example: Example @4 μg/ml
Method in brief: as §1

KPN 6299 = assay type: cell-based, K. pneumoniae; conditions: for MIC ATB combined with Example: Example @4 μg/ml
Method in brief: as §1

PAE UFR48 = assay type: cell-based, P. aeruginosa; conditions: PAE UFR48; for MIC ATB combined with Example: Example @4 μg/ml; for MIC ATB combined with Example compound: compound @4 μg/ml
Method in brief: as §1

PAE 105250 = assay type: cell-based, P. aeruginosa; conditions: PAE 105250; for MIC ATB combined with Example: Example @4 μg/ml; for MIC ATB combined with Example compound: compound @4 μg/ml
Method in brief: as §1

PAE UFR90 = assay type: cell-based, P. aeruginosa; conditions: PAE UFR90; for MIC ATB combined with Example: Example @4 μg/ml; for MIC ATB combined with Example compound: compound @4 μg/ml
Method in brief: as §1

SAU 29213 = assay type: cell-based, S. aureus; conditions: for MIC ATB combined with Example / MIC ATB combined with Example compound: SAU 29213; for MIC ATB combined with Example: Example @4 μg/ml; for MIC ATB combined with Example compound: compound @4 μg/ml
Method in brief: as §1

O=C1N2CC(n3ccnn3)=C[C@H](C2)N1OS(=O)(=O)[O-].[Na+] [Example 16, sodium [(5R)-7-oxo-3-(triazol-1-yl)-1,6-diazabicyclo[3.2.1]oct-3-en-6-yl] sulfate]
MIC ATB combined with Example (SPN 49619; ATB ATM): >32 µg/mL | MIC ATB combined with Example (SPN 49619; ATB FEP): <=0.031 μg/mL | MIC ATB combined with Example (SPN 49619; ATB FOS): 8 µg/mL | MIC ATB combined with Example (SPN 49619; ATB MEM): <=0.031 μg/mL | MIC ATB combined with Example (SPN 49619; ATB PIP): 0.5 µg/mL | MIC ATB combined with Example compound (SPN 49619; MIC of CIP): <=0.031 μg/mL | MIC ATB combined with Example compound (SPN 49619; MIC of CLI): <0.0010 µg/mL | MIC ATB combined with Example compound (SPN 49619; MIC of CPO): <=0.031 μg/mL | MIC ATB combined with Example compound (SPN 49619; MIC of DAP): 0.031 µg/mL | MIC ATB combined with Example compound (SPN 49619; MIC of ERY): <0.0020 µg/mL | MIC ATB combined with Example compound (SPN 49619; MIC of LZD): 0.125 µg/mL | MIC ATB combined with Example compound (SPN 49619; MIC of RIF): 0.00049 µg/mL | MIC ATB combined with Example compound (SPN 49619; MIC of SYN): 0.5 µg/mL | MIC ATB combined with Example compound (SPN 49619; MIC of VAN): 0.0078 µg/mL | MIC (SPN 49619; substance alone): 4 µg/mL | MIC ATB combined with Example (ECO 190317; ATB ATM): <0.031 µg/mL | MIC ATB combined with Example (ECO 190317; ATB FEP): <0.031 µg/mL | MIC ATB combined with Example (ECO 190317; ATB FOS): <0.125 µg/mL | MIC ATB combined with Example (ECO 190317; ATB MEM): <0.031 µg/mL | MIC ATB combined with Example (ECO 190317; ATB PIP): <0.031 µg/mL | MIC ATB combined with Example compound (ECO 190317; MIC of CIP, compound @4 μg/ml): <0.031 µg/mL | MIC (ECO 190317; substance alone): 0.5 µg/mL | MIC ATB combined with Example (ECO UFR39; ATB ATM): <0.031 µg/mL | MIC ATB combined with Example (ECO UFR39; ATB FEP): <0.031 µg/mL | MIC ATB combined with Example (ECO UFR39; ATB FOS): <0.125 µg/mL | MIC ATB combined with Example (ECO UFR39; ATB MEM): <0.031 µg/mL | MIC ATB combined with Example (ECO UFR39; ATB PIP): <0.031 µg/mL | MIC ATB combined with Example compound (ECO UFR39; MIC of CIP): <0.031 µg/mL | MIC ATB combined with Example compound (ECO UFR39; MIC of CPO): <0.031 µg/mL | MIC (ECO UFR39; substance alone): 0.5 µg/mL | MIC ATB combined with Example (ECL P99; ATB ATM): <0.031 µg/mL | MIC ATB combined with Example (ECL P99; ATB FEP): <0.031 µg/mL | MIC ATB combined with Example (ECL P99; ATB FOS): <0.125 µg/mL | MIC ATB combined with Example (ECL P99; ATB MEM): <0.031 µg/mL | MIC ATB combined with Example (ECL P99; ATB PIP): <0.031 µg/mL | MIC ATB combined with Example compound (ECL P99; MIC of CIP, compound @4 μg/ml): <=0.031 μg/mL | MIC (ECL P99; substance alone): 1 µg/mL | MIC ATB combined with Example (KPN UFR42; ATB ATM): <0.031 µg/mL | MIC ATB combined with Example (KPN UFR42; ATB FEP): <0.031 µg/mL | MIC ATB combined with Example (KPN UFR42; ATB FOS): <0.125 µg/mL | MIC ATB combined with Example (KPN UFR42; ATB MEM): <0.031 µg/mL | MIC ATB combined with Example (KPN UFR42; ATB PIP): <0.031 µg/mL | MIC ATB combined with Example compound (KPN UFR42; MIC of CIP): <0.031 µg/mL | MIC ATB combined with Example compound (KPN UFR42; MIC of CPO): <0.031 µg/mL | MIC (KPN UFR42; substance alone): 2 µg/mL | MIC ATB combined with Example (KPN BAA-1898; ATB ATM): <0.031 µg/mL | MIC ATB combined with Example (KPN BAA-1898; ATB FEP): <0.031 µg/mL | MIC ATB combined with Example (KPN BAA-1898; ATB FOS): <0.125 µg/mL | MIC ATB combined with Example (KPN BAA-1898; ATB MEM): <0.031 µg/mL | MIC ATB combined with Example (KPN BAA-1898; ATB PIP): <0.031 µg/mL | MIC ATB combined with Example compound (KPN BAA-1898; MIC of CIP, compound @4 μg/ml): <0.031 µg/mL | MIC (KPN BAA-1898; substance alone): 1 µg/mL | MIC ATB combined with Example (KPN 6299; ATB ATM): <0.031 µg/mL | MIC ATB combined with Example (KPN 6299; ATB FEP): <0.031 µg/mL | MIC ATB combined with Example (KPN 6299; ATB FOS): <0.125 µg/mL | MIC ATB combined with Example (KPN 6299; ATB MEM): <0.031 µg/mL | MIC ATB combined with Example (KPN 6299; ATB PIP): <0.031 µg/mL | MIC ATB combined with Example compound (KPN 6299; MIC of CIP, compound @4 μg/ml): <0.031 µg/mL | MIC ATB combined with Example (PAE UFR48; ATB ATM): 8 µg/mL | MIC ATB combined with Example (PAE UFR48; ATB FEP): 16 µg/mL | MIC ATB combined with Example (PAE UFR48; ATB FOS): 32 µg/mL | MIC ATB combined with Example (PAE UFR48; ATB MEM): 0.25 µg/mL | MIC ATB combined with Example (PAE UFR48; ATB PIP): 16 µg/mL | MIC ATB combined with Example compound (PAE UFR48; MIC of CIP): 4 µg/mL | MIC ATB combined with Example compound (PAE UFR48; MIC of CPO): >32 µg/mL | MIC (PAE UFR48; substance alone): 32 µg/mL | MIC ATB combined with Example (PAE 105250; ATB ATM): 8 µg/mL | MIC ATB combined with Example (PAE 105250; ATB FEP): 4 µg/mL | MIC ATB combined with Example (PAE 105250; ATB FOS): >128 µg/mL | MIC ATB combined with Example (PAE 105250; ATB MEM): 2 µg/mL | MIC ATB combined with Example (PAE 105250; ATB PIP): >32 µg/mL | MIC ATB combined with Example compound (PAE 105250; MIC of CIP): 0.125 µg/mL | MIC ATB combined with Example compound (PAE 105250; MIC of CPO): 8 µg/mL | MIC (PAE 105250; substance alone): 32 µg/mL | MIC ATB combined with Example (PAE UFR90; ATB ATM): 16 µg/mL | MIC ATB combined with Example (PAE UFR90; ATB FEP): 4 µg/mL | MIC ATB combined with Example (PAE UFR90; ATB FOS): 8 µg/mL | MIC ATB combined with Example (PAE UFR90; ATB MEM): 1 µg/mL | MIC ATB combined with Example (PAE UFR90; ATB PIP): >32 µg/mL | MIC ATB combined with Example compound (PAE UFR90; MIC of CIP): 1 µg/mL | MIC ATB combined with Example compound (PAE UFR90; MIC of CPO): 8 µg/mL | MIC (PAE UFR90; substance alone): >32 µg/mL | MIC ATB combined with Example (SAU 29213; ATB ATM): <0.031 µg/mL | MIC ATB combined with Example (SAU 29213; ATB FEP): <0.031 µg/mL | MIC ATB combined with Example (SAU 29213; ATB FOS): <=0.125 μg/mL | MIC ATB combined with Example (SAU 29213; ATB MEM): <=0.031 μg/mL | MIC ATB combined with Example (SAU 29213; ATB PIP): <0.031 µg/mL | MIC ATB combined with Example compound (SAU 29213; MIC of CIP): <0.031 µg/mL | MIC ATB combined with Example compound (SAU 29213; MIC of CLI): <0.0010 µg/mL | MIC ATB combined with Example compound (SAU 29213; MIC of CPO): <0.031 µg/mL | MIC ATB combined with Example compound (SAU 29213; MIC of DAP): <0.0020 µg/mL | MIC ATB combined with Example compound (SAU 29213; MIC of ERY): <0.0020 µg/mL | MIC ATB combined with Example compound (SAU 29213; MIC of LZD): <0.0078 µg/mL | MIC ATB combined with Example compound (SAU 29213; MIC of RIF): <0.00012 µg/mL | MIC ATB combined with Example compound (SAU 29213; MIC of SYN): <0.0020 µg/mL | MIC ATB combined with Example compound (SAU 29213; MIC of VAN): <0.0039 µg/mL | MIC (SAU 29213; substance alone, SAU 29213 (MSSA 29213)): 4 µg/mL

From patent publication US20200024278A1, “COMPOSITION COMPRISING ANTIBIOTIC COMPOUND AND AN HETEROCYCLIC COMPOUND AND THEIR USE IN PREVENTING OR TREATING BACTERIAL INFECTIONS” (MUTABILIS, priority 2016, published 2020)
